Measured values from publication PMC3701070 (PLoS ONE, 2013).
Like-named read-outs stand apart in the source and are kept apart here.

Columns and labels:
ALK5 (h) = ALK5 (h) (Homo sapiens, UniProt P36897); assay: ALK5 binding assay
NCI-H508 = assay: Cell growth assay; format: cell-based; details: Homo sapiens, 72 h; NCI-H508, BRAF(G596R), RAS WT, 3-day; read-out: gIC50
Description: (§1) Growth was measured with CellTiter-Glo® (Promega) reagent per the manufacturer’s protocol, using a PerkinElmer EnVision™ reader at t = 0 and 72 h. IC50 values for cell growth inhibition (gIC50) were determined.
(§2) (PDF) Click here for additional data file.

SK-LMS-1 = assay: Cell growth assay; format: cell-based; details: Homo sapiens, 72 h; SK-LMS-1, RAF WT, RAS WT, 3-day; read-out: gIC50
Description: as §1, §2

CaOV3 = assay: Cell growth assay; format: cell-based; details: Homo sapiens, Caov-3, 72 h; CaOV3, RAF WT, RAS WT, 3-day; read-out: gIC50
Description: as §1, §2

SW872 = assay: Cell growth assay; format: cell-based; details: Homo sapiens, 72 h; SW872, BRAF(V600E), RAS WT, 3-day; read-out: gIC50
Description: as §1, §2

SK-N-F1 = assay: Cell growth assay; format: cell-based; details: Homo sapiens, 72 h; SK-N-F1, RAF WT, RAS WT, 3-day; read-out: gIC50
Description: as §1, §2

SW1990 = assay: Cell growth assay; format: cell-based; details: Homo sapiens, 72 h; SW1990, RAF WT, RAS WT, 3-day; read-out: gIC50
Description: as §1, §2

NCI-ADR/RES = assay: Cell growth assay; format: cell-based; details: Homo sapiens, 72 h, RAF WT, RAS WT, 3-day, read-out: gIC50
Description: as §1, §2

RL = assay: Cell growth assay; format: cell-based; details: Homo sapiens, 72 h, RAF WT, RAS WT, 3-day, read-out: gIC50
Description: as §1, §2

NCI-H2030 = assay: Cell growth assay; format: cell-based; details: Homo sapiens, 72 h; NCI-H2030, RAF WT, RAS WT, 3-day; read-out: gIC50
Description: as §1, §2

[1] = test system: Colo 205 tumor xenografts (BRAF^V600E); assay: Colo 205 tumor xenograft growth; format: in vivo, mice
Description: The 14-day period of dosing is indicated by the shaded gray bar.

[2] = test system: A375P tumor xenografts (BRAF^V600E); assay: Pharmacodynamic markers in A375P tumor xenografts; format: in vivo; details: A375P xenograft, mice, 30 mg/kg oral once daily
Description: Tumors were harvested, homogenized (BD Bioscience Medimachine) in 1 mL each of ice-cold Western Blot Analysis buffer containing 4 mM sodium pyrophosphate, then centrifuged (18 000×g, 15 min, 4°C), and flash-frozen. Samples were analyzed by duplex ELISA (MesoScale Discovery) for total and phospho ERK1/2 per the manufacturer’s instructions using an MSD SI6000 reader.
A375P tumors were harvested at 6 h after the sixth daily dose with compound or vehicle, cut into samples of ∼100 mm^3 in volume, fixed in 10% neutral-buffered formalin (NBF, VWR) for 24 h, and transferred into 70% ethanol prior to paraffin embedding. Paraffin-embedded blocks were sectioned (4 µm to 5 µm) and immunostained for ppERK, Ki67, and p27^Kip1 by Mosaic Laboratories (Lake Forest, CA).
Phospho-ERK (pERK) is normalized to total ERK (tERK). Tumors harvested 6h post-last 6th dose were stained for Ki67, p27, and ppERK by immunohistochemistry and compared with pre-treatment controls (B). Data are representative of n = 3 studies and percent changes were calculated from the ratio of positively stained cells following drug treatment to those following vehicle control treatment, each as a percentage of the total cell population.

[3] = test system: Human Foreskin Fibroblasts (HFF, wild-type BRAF); assay: Cell cycle analysis; format: cell-based; details: concentrations up to 10 µM
Description: Cells were permeabilized, DNA was stained with propidium iodide, and samples were read on a BD LSRII flow cytometer. Data were analyzed using the cell cycle platform of FlowJo v6.1.1 software.
Cell cycle phases are shown in stacked format as a percentage of the total population. […] (PPTX) Click here for additional data file.

PKD2 (h) = target: T1, PKD2 (h) (Homo sapiens, UniProt Q9BZL6); assay: Kinase panel (Millipore) enzyme activity; format: biochemical
T1 construct: purchased Millipore

195 tumor cell lines = assay: Cell growth assay, summary over 195 tumor cell lines; format: cell-based; details: Homo sapiens, read-out: gIC50
Description: as §1
The functional selectivity of dabrafenib was evaluated by measuring the growth of a range of human tumor cell lines of different genetic mutation status.
as §2

[4] = test system: A375P tumors (BRAF^V600E)
Description: Cells were implanted subcutaneously in female CD1 nu/nu mice and grown to form tumors. […] Tumor volumes were estimated twice weekly from two-dimensional caliper measurements using the prolate ellipsoid equation [drawing 1] , where v = volume (mm^3), l = length (mm), and w = width (mm), and reported as means for n of 7 or 8 mice per group. Tumor growth inhibition represents the percentage volume differential between treated and control tumors at the time when vehicle-treated tumors exceeded a volume of 1 000 mm^3. Partial regression is defined as a 50% decrease from an individual tumor's starting volume for at least 1 week (three consecutive measurements). […] All efforts were made to minimize suffering and mice were euthanized by carbon dioxide asphyxiation if at least one death occurred per treatment group, if an animal appeared moribund or in distress, or if the tumor became ulcerated.
Treatment continued until the mean tumor volume of each group reached 1 200 mm^3 or one death occurred. Mean tumor volumes are plotted with their standard error mean and complete (CR) or partial (PR) regressions are indicated for each group of n = 8 mice after 14 days of treatment.

[5] = test system: pMEK and pERK in HCT-116 (wild-type BRAF, mutant KRAS) cells; assay: Western blot, paradoxical MAPK activation in HCT-116 cells; format: cell-based, human; details: 100 nM or 300 nM, 1 h
Description: (§3) Cells were lysed in 25 mM Tris-HCl pH 7.5, 2 mM EDTA, 2 mM EGTA, 1% Triton X-100, 0.1% SDS, 50 mM sodium-β-glycerophosphate, 2 mM Na3VO4, 12.5 mM sodium pyrophosphate, 2× Complete EDTA-free mini protease inhibitor tablets (Roche), 2× phosphatase inhibitor cocktails I and II (Sigma-Aldrich). Protein concentrations were determined by Bio-Rad DC™ or dye-based protein assays and lysates were resolved by SDS-PAGE (Invitrogen NuPAGE®) and transferred to PVDF membranes. Membranes were blocked with Odyssey® (LI-COR Biosciences) blocking buffer and incubated with primary antibodies overnight at 4°C. Blots were washed with PBS containing 0.1% Tween-20, incubated with secondary antibodies, and washed again prior to signal detection on a LI-COR Odyssey® reader.
Lysates were immunoblotted for total ERK (tERK) and dual-phosphorylated ERK (ppERK) (B).

[6] = test system: pMEK in A375P (BRAF^V600E) cells; assay: Western blot, pMEK in A375P cells; format: cell-based; details: Homo sapiens, 8 nM, 1 h
Description: as §3
siRNA complexes were prepared per the manufacturer's instructions using Dharmacon RNAi duplex (Thermo Fisher Scientific), Lipofectamine™ RNAiMAX™ (Invitrogen), and Opti-MEM® (Gibco) and allowed to form at room temperature for at least 40 min. Volumes of 1 mL of RNAi complex were added to each well of a plate with 150 000 cells in complete medium (no antibiotic) and incubated at 37°C, 5% CO2 for the indicated times.
Lysates were immunoblotted for the proteins indicated.

T1 sequence (Q9BZL6 whole entry): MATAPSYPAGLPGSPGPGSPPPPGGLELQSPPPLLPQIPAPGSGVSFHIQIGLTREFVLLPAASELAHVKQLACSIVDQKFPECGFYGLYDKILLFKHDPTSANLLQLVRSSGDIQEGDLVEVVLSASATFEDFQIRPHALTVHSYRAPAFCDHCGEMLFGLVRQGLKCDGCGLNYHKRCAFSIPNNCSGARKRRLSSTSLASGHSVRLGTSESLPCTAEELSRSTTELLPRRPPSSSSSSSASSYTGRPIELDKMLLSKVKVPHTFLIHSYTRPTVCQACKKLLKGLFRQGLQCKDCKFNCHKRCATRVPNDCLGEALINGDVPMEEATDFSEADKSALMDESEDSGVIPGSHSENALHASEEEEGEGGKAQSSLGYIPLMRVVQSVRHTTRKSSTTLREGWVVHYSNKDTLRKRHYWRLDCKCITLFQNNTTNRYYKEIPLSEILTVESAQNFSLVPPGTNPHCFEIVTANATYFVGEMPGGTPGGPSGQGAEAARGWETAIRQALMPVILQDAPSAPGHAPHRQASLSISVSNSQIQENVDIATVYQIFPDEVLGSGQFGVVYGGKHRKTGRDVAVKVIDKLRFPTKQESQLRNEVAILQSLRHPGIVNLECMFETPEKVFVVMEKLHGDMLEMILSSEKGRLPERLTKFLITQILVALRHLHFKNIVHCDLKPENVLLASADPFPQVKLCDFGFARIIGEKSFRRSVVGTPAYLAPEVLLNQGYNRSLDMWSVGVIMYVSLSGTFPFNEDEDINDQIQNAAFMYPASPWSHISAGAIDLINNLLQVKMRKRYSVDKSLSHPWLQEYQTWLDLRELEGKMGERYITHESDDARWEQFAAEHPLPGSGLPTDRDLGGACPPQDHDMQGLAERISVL
Chain of ALK5 (h) (P36897 34-503): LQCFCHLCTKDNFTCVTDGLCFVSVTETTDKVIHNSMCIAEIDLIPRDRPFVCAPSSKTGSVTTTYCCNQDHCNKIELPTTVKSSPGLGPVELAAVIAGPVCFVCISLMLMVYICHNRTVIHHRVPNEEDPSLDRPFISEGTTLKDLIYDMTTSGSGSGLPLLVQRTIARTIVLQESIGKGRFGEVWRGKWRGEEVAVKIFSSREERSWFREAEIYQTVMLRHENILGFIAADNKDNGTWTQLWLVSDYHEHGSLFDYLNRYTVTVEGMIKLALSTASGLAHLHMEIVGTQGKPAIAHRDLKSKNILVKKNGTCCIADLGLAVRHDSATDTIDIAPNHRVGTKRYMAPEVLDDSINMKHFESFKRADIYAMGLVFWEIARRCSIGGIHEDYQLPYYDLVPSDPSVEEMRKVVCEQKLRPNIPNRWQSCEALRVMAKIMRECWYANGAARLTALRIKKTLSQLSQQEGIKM

## CC(C)(C)c1nc(-c2cccc(NS(=O)(=O)c3c(F)cccc3F)c2F)c(-c2ccnc(N)n2)s1 [dabrafenib]
ALK5 (h)
  IC50: 0.011 µM
NCI-H508
  IC50: > 10 µM
SK-LMS-1
  IC50: > 10 µM
CaOV3
  IC50: > 10 µM
SW872
  IC50: 0.377 µM
SK-N-F1
  IC50: > 10 µM
SW1990
  IC50: > 10 µM
NCI-ADR/RES
  IC50: > 10 µM
RL
  IC50: > 10 µM
NCI-H2030
  IC50: > 10 µM
[1]; Colo 205 xenograft, 100 mg/kg oral q.d. x 14
  partial regressions: 4 of 8 mice
[1]; Colo 205 xenograft, 3, 10, 30 and 100 mg/kg oral q.d. x 14
  inhibition of tumor growth: dose-dependent inhibition of tumor growth
[2]; 6 h after sixth dose
  downregulation of Ki67 in tumors, immunohistochemistry: 28%
  downregulation of pERK (ppERK) in tumors, immunohistochemistry: 89%
  upregulation of p27 in tumors, immunohistochemistry: 54%
[2]; after 7 and 14 days of dosing
  time post-dosing for which reduction of tumor pERK is sustained: up to 18 h
[3]
  effect on cell cycle: unaffected
PKD2 (h)
  IC50: 0.057 µM
195 tumor cell lines; 133 (88%) of the 152 RAS/RAF wild-type and all 18 mutant RAS cell lines
  IC50: > 10 µM
195 tumor cell lines; A673, 3 of the BRAF^V600E cell lines (GCT, RKO, A673)
  IC50: > 2 µM
195 tumor cell lines; sixteen (80%) of the 20 cell lines encoding BRAF^V600E
  IC50: < 0.2 µM
[4]; 30 mg/kg for 33 days
  period for which tumor growth inhibition was observed: 14 days
[4]; 300 mg/kg for 43 days
  period for which tumor growth inhibition was observed: 20 days
[5]
  pMEK and pERK compared with DMSO control: increased pMEK and pERK
[6]
  inhibition at 0.008 µM: > 90%
